The results in this text go back to PubChem BioAssay (NCI).

What all share (test): DTP human tumour cell line panel, 48 h
In assay [1] the test system is SK-MEL-28 melanoma.
Assay [2] deals with MOLT-4 leukemia.
The test system of assay [3] is HT29 colon.
In assay [4] the test system is OVCAR-8 ovarian.
Assay [5] has as its system A498 renal.
The subject of assay [6] is HCT-15 colon.
For assay [7], the system named is SF-268 CNS.
The test system of assay [8] is MALME-3M melanoma.
The test system of assay [9] is SR leukemia.

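The compound was tested at five concentrations on cells cultured in 96-well plates, with a 48-hour exposure period. GI50 is the concentration that inhibits growth by half. The concentration for full growth arrest is given as TGI.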 Where only a bound is given, the exact number is not on record here.

Take `C=C[C@]1(C)CCC2=C(CCC3C2(C)CCC[C@]3(C)CO)C1` (stereo not given in full): the TGI in assay [1] is above 100 µM; in assay [2] it was 84.9 µM; in assay [3], 48 µM; in assay [4] it was above 100 µM; in [5], above 100 µM; in assay [6], above 100 µM. Also, the TGI in [7], in assay [8] and in assay [9] was above 100 µM each time.
Turning to `CN=C1Nc2ccc(Cl)cc2C(c2ccccc2)=NN1C`, the TGI in assay [1], in assay [2], in assay [3], in assay [4], in assay [5] and in assay [6] was above 100 µM each time. The TGI in assay [7] and in [8] was above 100 µM each time.
Regarding `CCC1=C(C)/C(=C/c2[nH]c(CBr)c(CC)c2C)N=C1CBr`, the TGI in assay [1] was 34.2 µM; in [2], 27.6 µM; in assay [3] it was 26.7 µM; in assay [4], 26.6 µM; in [6] it was 27.2 µM; in assay [7], 36.8 µM. The TGI in assay [8] came out at 41 µM.
As to `N.N.N.N.N.N.[I-].[Os]`, the GI50 in assay [1], in assay [2], in assay [3], in [4], in assay [5] and in assay [6] was above 100 µM each time. Further, the GI50 was above 100 µM in assay [7] and 38.9 µM in [8]. For the same molecule, the TGI in assay [1], in assay [2], in [3], in assay [4], in assay [5] and in [6] was above 100 µM in each case. The TGI in assay [7] is above 100 µM; in [8] it was 96.5 µM.
Consider `CC1(C)OC(C(N)=O)=C(C(N)=O)O1`, for which the TGI in assay [1], in [2], in [3], in [4], in [5] and in assay [6] was above 100 µM in each case. Besides, the TGI in assay [7], in assay [8] and in assay [9] was above 100 µM each time.
As for `COC(=O)C1(C(=O)OC)CC2c3c(c4ccccc4n3C)CC(C1=O)N2Cc1ccccc1` (stereo not given), the TGI in [1], in assay [2], in assay [3], in [4], in assay [5] and in assay [6] was above 100 µM throughout. For the same molecule, the TGI in assay [7] and in assay [8] was above 100 µM each time.
As to `C/C=C/C=N/N(C(=O)c1cc([N+](=O)[O-])cc([N+](=O)[O-])c1)C1=NC(c2ccccc2)C(c2ccccc2)=NN1` (stereo not given), the TGI in assay [1], in assay [2], in assay [3], in assay [4], in assay [5] and in assay [6] was above 100 µM each time. For the same molecule, the TGI was above 100 µM in assay [7] and 75.2 µM in assay [8].
For the molecule `CC(=O)OCc1cc(OC(C)=O)cnc1COC(C)=O`, the TGI in assay [1], in assay [2], in assay [3], in assay [4], in assay [5] and in [6] was above 100 µM each time. Besides, the TGI in assay [7], in [8] and in assay [9] was above 100 µM throughout.
For `Cc1ccccc1NC(=O)C(=O)C(c1cnc2ccc([N+](=O)[O-])cc2n1)[N+](=O)[O-]` (stereo not given), the TGI in [1], in assay [2], in [3], in [4], in assay [5] and in assay [6] was above 100 µM each time. Also, the TGI in assay [7], in assay [8] and in [9] was above 100 µM throughout.
With `C#CCOCn1cnc2c(=S)nc[nH]c21`, the TGI in assay [1], in assay [3], in assay [4], in [5], in [6] and in assay [7] was above 100 µM in each case. In addition, the TGI in [8] is above 100 µM.
Regarding `Nc1ncnc(NC2C=C(CO)C(O)C2O)c1[N+](=O)[O-]` (stereo not given), the TGI in assay [1], in assay [2], in assay [3], in assay [4], in [5] and in assay [6] was above 100 µM throughout. Also, the TGI in [7] and in assay [9] was above 100 µM throughout.
Consider `N=C1N(c2ccccc2)C(=O)C23CCCC2C13N1CCOCC1` (stereo not given), for which the TGI in assay [1], in [2], in [3], in assay [4], in [6] and in [7] was above 100 µM each time. Also, the TGI in assay [8] and in assay [9] was above 100 µM in each case.
Turning to `COC(=O)C1=CN=C(C(=O)OC)NN1`, the TGI in [1], in assay [2], in [3], in assay [4], in assay [6] and in [7] was above 100 µM each time. Also, the TGI in assay [8] and in assay [9] was above 100 µM in each case.
As for `COC(=O)C(C(=O)C(=O)Nc1ccccc1C(C)=O)c1nc2ccc(Cl)cc2[nH]c1=O` (stereo not given), the TGI in assay [1], in assay [2], in [3], in assay [4], in [5] and in assay [6] was above 100 µM throughout. The TGI in assay [7] and in [8] was above 100 µM each time.
In the case of `COc1ccc(CNC2=C(NC(C)=O)C(=O)c3ccccc3C2=O)cc1`, the TGI in assay [1] is above 50 µM; in assay [2], 17.7 µM; in [3] it was above 50 µM; in assay [4], above 50 µM; in [6], above 50 µM; in [7], above 50 µM. For the same molecule, the TGI was 15.2 µM in assay [8] and above 50 µM in [9].

A word on the TGI: it is the concentration at which net growth stops. A high value points to less potent growth arrest. In general, GI50 refers to the concentration that inhibits growth by half.
